For 29 compounds, IC50 results are on record in patent US20080242663A1, “NOVEL PYRIMIDINE DERIVATIVES 698” (ASTRAZENECA AB, priority 2007, published 2008).

The assay has as its target T1, recombinant EphB4 (Homo sapiens, UniProt P54760).
T1 construct: amino acids 563-987; Swiss-Prot Acc; No. P54760; purchased ProQinase GmbH 0178-0000-3
T1 sequence (P54760 563-987): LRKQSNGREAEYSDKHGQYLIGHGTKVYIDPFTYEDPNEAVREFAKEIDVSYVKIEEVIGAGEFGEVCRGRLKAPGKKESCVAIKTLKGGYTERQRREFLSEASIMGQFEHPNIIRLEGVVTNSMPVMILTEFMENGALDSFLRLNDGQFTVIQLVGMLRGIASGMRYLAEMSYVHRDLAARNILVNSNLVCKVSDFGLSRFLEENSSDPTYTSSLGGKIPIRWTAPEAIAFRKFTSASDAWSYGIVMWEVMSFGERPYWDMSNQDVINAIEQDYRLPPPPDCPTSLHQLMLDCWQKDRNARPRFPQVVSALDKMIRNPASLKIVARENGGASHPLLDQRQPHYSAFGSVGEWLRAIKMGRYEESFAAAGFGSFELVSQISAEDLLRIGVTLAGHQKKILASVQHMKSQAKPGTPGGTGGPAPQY
In words: In vitro EphB4 enzyme assay (Alphascreen). The class given is biochemical. As for the experimental part:
This assay detects inhibitors of EphB4-mediated phosphorylation of a polypeptide substrate using Alphascreen™ luminescence detection technology. Briefly, recombinant EphB4 was incubated with a biotinylated-polypeptide substrate (biotin-poly-GAT) in presence of magnesium-ATP. The reaction was stopped by addition of EDTA, together with streptavidin-coated donor beads which bind the biotin-substrate containing any phosphorylated tyrosine residues. Anti-phosphotyrosine antibodies present on acceptor beads bind to phosphorylated substrate, thus bringing the donor & acceptor beads into close proximity. Subsequent excitation of the donor beads at 680 nm generated singlet oxygen species that interact with a chemiluminescer on the acceptor beads, leading to light emission at 520-620 nm. The signal intensity is directly proportional to the level of substrate phosphorylation and thus inhibition is measured by a decrease in signal.
Assay plates were then incubated at room temperature for 1 hr. […] The plates were sealed under natural lighting conditions, wrapped in aluminium foil and incubated in the dark for a further 20 hrs.
The resulting assay signal was determined on the Perkin Elmer EnVision plate reader. The minimum value was subtracted from all values, and the signal plotted against compound concentration to generate IC50 data.
For orientation: In Alpha technology, singlet oxygen from a donor bead excites a nearby acceptor bead.
As for `Cc1ccc(CO)cc1N(C)c1ccnc(Nc2cc(OC(C)C)cc(N3CCOCC3)c2)n1` [Example 17.2, [4-methyl-3-[methyl-[2-[(3-morpholin-4-yl-5-propan-2-yloxy-phenyl)amino]pyrimidin-4-yl]amino]phenyl]methanol], the half-inhibitory concentration (IC50) (in general, the concentration that gives 50% inhibition) came out at 171 nM. Then `CCN(C)C(=O)c1cc(Nc2nccc(N(C)c3cc(CO)ccc3C)n2)cc(N2CCOCC2)c1` [Example 18.4, N-ethyl-3-[[4-[[5-(hydroxymethyl)-2-methyl-phenyl]-methyl-amino]pyrimidin-2-yl]amino]-N-methyl-5-morpholin-4-yl-benzamide], with 75.3 nM; and `CN(c1ccnc(Nc2cc(N3CCOCC3)cc(N3CCOCC3)c2)n1)c1ccc(F)c(Cl)c1F` [Example 2.1, N′-(3-chloro-2,4-difluoro-phenyl)-N-(3,5-dimorpholin-4-ylphenyl)-N′-methyl-pyrimidine-2,4-diamine], with 829 nM.

In the case of `CN1CCN(c2cc(Nc3nccc(N(C)c4cccc(Cl)c4)n3)cc(N3CCOCC3)c2)CC1` [Example 24, N4-(3-chlorophenyl)-N4-methyl-N2-[3-(4-methylpiperazin-1-yl)-5-morpholin-4-ylphenyl]pyrimidine-2,4-diamine], the half-inhibitory concentration (IC50) was 0.581 nM. Then `CN(c1ccnc(Nc2cc(N3CCOCC3)cc(N3CCOCC3)c2)n1)c1cccc(Cl)c1F` [Example 15.15, N′-(3-chloro-2-fluoro-phenyl)-N-(3,5-dimorpholin-4-ylphenyl)-N′-methyl-pyrimidine-2,4-diamine], with 696 nM. Under `CN(c1cccc(Cl)c1)c1ccnc(Nc2cc(C(=O)NC(C)(C)CO)cc(N3CCOCC3)c2)n1` [Example 19.19, 3-[[4-[(3-chlorophenyl)-methyl-amino]pyrimidin-2-yl]amino]-N-(1-hydroxy-2-methyl-propan-2-yl)-5-morpholin-4-yl-benzamide] stands 1050 nM; under `COc1ccc(C)c(N(C)c2ccnc(Nc3cc(N4CCOCC4)cc(N4CCOCC4=O)c3)n2)c1` [Example 12.7, 4-[3-[[4-[(5-methoxy-2-methyl-phenyl)-methyl-amino]pyrimidin-2-yl]amino]-5-morpholin-4-yl-phenyl]morpholin-3-one], 305 nM; under `Cc1cc(C)c(N(C)c2ccnc(Nc3cc(N4CCOCC4)cc(N4CCOCC4)c3)n2)c(C)c1` [Example 10.13, N-(3,5-dimorpholin-4-ylphenyl)-N′-methyl-N′-(2,4,6-trimethylphenyl)pyrimidine-2,4-diamine], 811 nM. As for `Cc1ccc(CO)cc1N(C)c1ccnc(Nc2cc(C#N)cc(N3CCOCC3)c2)n1` [Example 7.15, 3-[[4-[[5-(hydroxymethyl)-2-methyl-phenyl]-methyl-amino]pyrimidin-2-yl]amino]-5-morpholin-4-yl-benzonitrile], the IC50 was 195 nM. Under `Cc1ccc(CO)cc1N(C)c1ccnc(Nc2cc(N3CCOCC3)cc(N3CCOC[C@H]3C)c2)n1` [Example 7.18, (R)-(4-methyl-3-(methyl(2-(3-(3-methylmorpholino)-5-morpholinophenyl-amino)pyrimidin-4-yl)amino)phenyl)methanol] stands 6.45 nM.

Take `COc1ccc(N(C)c2ccnc(Nc3cc(N4CCOCC4)cc(N4CCOCC4)c3)n2)cc1OC` [Example 15.3, N′-(3,4-dimethoxyphenyl)-N-(3,5-dimorpholin-4-ylphenyl)-N′-methyl-pyrimidine-2,4-diamine]: the IC50 came to 1000 nM. As to `CN(c1ccnc(Nc2cc(N3CCOCC3)cc(N3CCOCC3)c2)n1)c1ccccc1F` [Example 10.16, N-(3,5-dimorpholin-4-ylphenyl)-N′-(2-fluorophenyl)-N′-methyl-pyrimidine-2,4-diamine], the IC50 came to 237 nM. Then `CN(CCO)C(=O)c1cc(Nc2nccc(N(C)c3cccc(Cl)c3)n2)cc(N2CCOCC2)c1` [Example 19.2, 3-[[4-[(3-chlorophenyl)-methyl-amino]pyrimidin-2-yl]amino]-N-(2-hydroxyethyl)-N-methyl-5-morphohn-4-yl-benzamide], with 395 nM. Then `COCCN(C)C(=O)c1cc(Nc2nccc(N(C)c3cccc(Cl)c3)n2)cc(N2CCOCC2)c1` [Example 19.3, 3-[[4-[(3-chlorophenyl)-methyl-amino]pyrimidin-2-yl]amino]-N-(2-methoxyethyl)-N-methyl-5-morpholin-4-yl-benzamide], with 571 nM; and `CN(c1cc(Cl)cc(CO)c1)c1ccnc(Nc2cc(N3CCOCC3)cc(N3CCOCC3)c2)n1` [Example 10.20, [3-chloro-5-[[2-[(3,5-dimorpholin-4-ylphenyl)amino]pyrimidin-4-yl]-methyl-amino]phenyl]methanol], with 338 nM.

As for `COc1ccc(C)c(N(c2ccnc(Nc3cc(N4CCOCC4)cc(N4CCOCC4)c3)n2)C(C)C)c1` [Example 22.2, N-(3,5-dimorpholin-4-ylphenyl)-N′-(5-methoxy-2-methyl-phenyl)-N′-propan-2-yl-pyrimidine-2,4-diamine], the concentration for half-maximal inhibition (IC50) was 1860 nM.

Take `COCC(C)NC(=O)c1cc(Nc2nccc(N(C)c3cccc(Cl)c3)n2)cc(N2CCOCC2)c1` (centres unmarked) [Example 19.15, 3-[[4-[(3-chlorophenyl)-methyl-amino]pyrimidin-2-yl]amino]-N-(1-methoxypropan-2-yl)-5-morpholin-4-yl-benzamide]: the IC50 is 1100 nM. Regarding `Cc1ccc(CO)cc1N(CCO)c1ccnc(Nc2cc(N3CCOCC3)cc(N3CCOCC3)c2)n1` [Example 21.3], the IC50 turned out to be 25 nM. Under `COc1ccc(NC(C)=O)c(N(C)c2ccnc(Nc3cc(N4CCOCC4)cc(S(C)(=O)=O)c3)n2)c1` [Example 13.2, N-[4-methoxy-2-[methyl-[2-[(3-methylsulfonyl-5-morpholin-4-yl-phenyl)amino]pyrimidin-4-yl]amino]phenyl]acetamide] stands 426 nM; under `COc1ccc(OC)c(N(C)c2ccnc(Nc3cc(N4CCOCC4)cc(N4CCOCC4)c3)n2)c1` [Example 15.4, N′-(2,5-dimethoxyphenyl)-N-(3,5-dimorpholin-4-ylphenyl)-N′-methyl-pyrimidine-2,4-diamine], 680 nM. Then `CN(c1ccc(F)c(Cl)c1)c1ccnc(Nc2cc(N3CCOCC3)cc(N3CCOCC3)c2)n1` [Example 15.22, N′-(4-fluoro-3-chloro-phenyl)-N-(3,5-dimorpholin-4-ylphenyl)-N′-methyl-pyrimidine-2,4-diamine], with 316 nM; and `COCCN(C)C(=O)c1cc(Nc2nccc(N(C)c3cc(CO)ccc3C)n2)cc(N2CCOCC2)c1` [Example 18.7, 3-[[4-[[5-(hydroxymethyl)-2-methyl-phenyl]-methyl-amino]pyrimidin-2-yl]amino]-N-(2-methoxyethyl)-N-methyl-5-morpholin-4-yl-benzamide], with 118 nM; and `COc1cc(C)ccc1N(C)c1ccnc(Nc2cc(N3CCOCC3)cc(N3CCOCC3)c2)n1` [Example 15.12, N-(3,5-dimorpholin-4-ylphenyl)-N′-(2-methoxy-4-methyl-phenyl)-N′-methyl-pyrimidine-2,4-diamine], with 1400 nM.

As to `CCNC(=O)c1cc(Nc2nccc(N(C)c3cccc(Cl)c3)n2)cc(N2CCOCC2)c1` [Example 19.25, 3-[[4-[(3-chlorophenyl)-methylamino]pyrimidin-2-yl]amino]-N-ethyl-5-morpholin-4-ylbenzamide], the IC50 worked out at 875 nM. Regarding `Cc1ccc(CO)cc1N(C)c1ccnc(Nc2cc(N3CCOCC3)cc(N3CCC(=O)CC3)c2)n1` [Example 7.19, 1-(3-(4-((5-(hydroxymethyl)-2-methylphenyl)(methyl)amino)pyrimidin-2-ylamino)-5-morpholinophenyl)piperidin-4-one], the IC50 amounted to 9.73 nM. With `C[C@H](O)CN(C)C(=O)c1cc(Nc2nccc(N(C)c3cccc(Cl)c3)n2)cc(N2CCOCC2)c1` [Example 19.5, 3-[[4-[(3-chlorophenyl)-methyl-amino]pyrimidin-2-yl]amino]-N-[(2S)-2-hydroxypropyl]-N-methyl-5-morpholin-4-yl-benzamide], the concentration for half-maximal inhibition (IC50) worked out at 181 nM. Under `COc1ccc(CO)c(N(C)c2ccnc(Nc3cc(N4CCOCC4)cc(N4CCOCC4)c3)n2)c1` [Example 25.7, (2-((2-(3,5-dimorpholinophenylamino)pyrimidin-4-yl)(methyl)amino)-4-methoxyphenyl)methanol] stands 10.3 nM; under `CSc1cccc(N(C)c2ccnc(Nc3cc(N4CCOCC4)cc(N4CCOCC4)c3)n2)c1` [Example 10.7, N-(3,5-dimorpholin-4-ylphenyl)-N′-methyl-N′-(3-methylsulfanylphenyl)pyrimidine-2,4-diamine], 638 nM; under `CN(c1ccnc(Nc2cc(N3CCOCC3)cc(N3CCOCC3)c2)n1)c1cccc(CO)c1F` [Example 25.4, (3-((2-(3,5-dimorpholinophenylamino)pyrimidin-4-yl)(methyl)amino)-2-fluorophenyl)methanol], 11.6 nM.
